Measurements: ChEMBL document CHEMBL1128878, “Simple compounds, 2-alkyl-2-amino-1,3-propanediols have potent immunosuppressive activity” (Bioorg Med Chem Lett, 1995)

Experiments:
Mus musculus = species on record: Mus musculus; assay: Inhibition of mouse allogenic mixed leukocyte response (MLR); assay type: functional
Rattus norvegicus [1] = assay: Compound was evaluated in vivo for the immunosuppressive activity on rat skin allograft at ip dose of 0.03 mg/Kg; assay type: functional
Rattus norvegicus [2] = assay: Compound was evaluated in vivo for the immunosuppressive activity on rat skin allograft at ip dose of 0.1 mg/Kg; assay type: functional
Rattus norvegicus [3] = assay: Compound was evaluated in vivo for the immunosuppressive activity on rat skin allograft at ip dose of 0.3 mg/Kg; assay type: functional
Rattus norvegicus [4] = assay: Compound was evaluated in vivo for the immunosuppressive activity on rat skin allograft at ip dose of 1 mg/Kg; toxic (animals died); assay type: functional, organism-based
Rattus norvegicus [5] = assay: Compound was evaluated in vivo for the immunosuppressive activity on rat skin allograft at ip dose of 1 mg/Kg; assay type: functional
Rattus norvegicus [6] = assay: Compound was evaluated in vivo for the immunosuppressive activity on rat skin allograft at ip dose of 10 mg/Kg; toxic (animals died); assay type: ADME, organism-based
Rattus norvegicus [7] = assay: Compound was evaluated in vivo for the immunosuppressive activity on rat skin allograft at ip dose of 3 mg/Kg; assay type: functional
Rattus norvegicus [8] = assay: Compound was evaluated in vivo for the immunosuppressive activity on rat skin allograft at ip dose of 30 mg/Kg; assay type: functional
Rattus norvegicus [9] = assay: Compound was evaluated in vivo for the immunosuppressive activity on rat skin allograft at ip dose of 10 mg/Kg; assay type: functional

IC50 (Mus musculus) | Compound | further results
10 nM | CCCCCCCCCCCCCCCCC(N)(CO)CO | 
5.9 nM | CCCCCCCCCCCCCCC(N)(CO)CO | 
440 nM | CCCCCCCCCCC(N)(CO)CO | 
56 nM | CCCCCCCCCCCCC/C=C/C[C@@H](O)[C@H](O)C(N)(CO)CO | 
130 nM | CCCCCCCCCCCCCCCCCCC(N)C(=O)O (centres undefined) | 
190 nM | CCCCCCCCCCCCCCCCCCCCC(N)(CO)CO | 
4.7 nM | CCCCCCC(O)CCCCCC/C=C/C[C@@H](O)[C@H](O)C(N)(CO)CO (some centres undefined) | 
12 nM | CCCCCCCCCCCCCC(N)(CO)CO | 
1600 nM | CCCCCCCCCCCCCCCCCCCCCCC(N)(CO)CO | 

Continued, molecule first:

Compound | IC50 (Mus musculus) | further results
CCCCCCC(=O)CCCCCC/C=C/C[C@@H](O)[C@H](O)[C@@](N)(CO)C(=O)O [MYRIOCIN] | 3 nM | MST (Rattus norvegicus [1]): 7.8 days; MST (Rattus norvegicus [2]): 9.2 days; MST (Rattus norvegicus [3]): 11.2 days; MST (Rattus norvegicus [4]): Toxic (animals died)
CCCCCCCCCCCCC(N)(CO)CO | 270 nM | 
CCCCCCCCCCCCCCCC[C@@H](O)[C@H](O)C(N)(CO)CO | 320 nM | 
CCCCCCCCCCCCCCCC(N)(CO)CO | 2.9 nM | MST (Rattus norvegicus [1]): 10.8 days; MST (Rattus norvegicus [2]): 14 days; MST (Rattus norvegicus [3]): 33.5 days; MST (Rattus norvegicus [5]): 45.3 days; MST (Rattus norvegicus [6]): Toxic (animals died); MST (Rattus norvegicus [7]): 57.8 days
CCCCCCC(O)CCCCCCCCC[C@@H](O)[C@H](O)C(N)(CO)CO (some centres undefined) | 1630 nM | 
CCCCCCCCC(N)(CO)CO | 3700 nM | 
C/C=C/C[C@@H](C)[C@@H](O)[C@H]1C(=O)N[C@@H](CC)C(=O)N(C)CC(=O)N(C)[C@@H](CC(C)C)C(=O)N[C@@H](C(C)C)C(=O)N(C)[C@@H](CC(C)C)C(=O)N[C@@H](C)C(=O)N[C@H](C)C(=O)N(C)[C@@H](CC(C)C)C(=O)N(C)[C@@H](CC(C)C)C(=O)N(C)[C@@H](C(C)C)C(=O)N1C [CYCLOSPORINE] |  | MST (Rattus norvegicus [5]): 7.3 days; MST (Rattus norvegicus [7]): 10.8 days; MST (Rattus norvegicus [8]): 19.2 days; MST (Rattus norvegicus [9]): 15.2 days
